Results on two compounds are retold here after ChEMBL document CHEMBL1158230, “Cytotoxicity and mode of action of aeroplysinin-1 and a related dienonefrom the sponge Aplysina aerophoba” (J Nat Prod, 1996).

Common to all, as to format: functional, cell-based
Test [1] is described as follows: Cytotoxicity against buthionine sulfoximine-pretreated human HeLaS3 cells after 2 hrs by MTT assay. As to conditions: HeLa S3. (In general: Formazan colour is commonly taken as a measure of viable cells.)
The nature of test [2]: Cytotoxicity against mouse EN19 cells after 1 week by clonogenic assay. As to conditions: EN19, 168 h.
Test [3] in a line: Cytotoxicity against human HeLaS3 cells after 2 hrs by MTT assay. The note with it: HeLa S3, 2 h.
A short description of test [4]: Cytotoxicity against mouse EN19 cells after 2 hrs by MTT assay. As to conditions: EN19, 2 h.
A short description of test [5]: Cytotoxicity against buthionine sulfoximine-pretreated human HeLaS3 cells after 4 days by MTT assay. As to conditions: HeLa S3.
Test [6] in a line: Cytotoxicity against buthionine sulfoximine-pretreated mouse EN19 cells after 2 hrs by MTT assay.
Test [7] in a line: Cytotoxicity against human HeLaS3 cells after 4 days by MTT assay. The note with it: HeLa S3, 96 h.
Test [8] is described as follows: Cytotoxicity against buthionine sulfoximine-pretreated mouse EN19 cells after 3 days by MTT assay.
A short description of test [9]: Cytotoxicity against human HeLaS3 cells after 2 weeks by clonogenic assay. The note with it: HeLa S3, 336 h.
Test [10] is described as follows: Cytotoxicity against mouse EN19 cells after 3 days by MTT assay. The note with it: EN19, 72 h.

Regarding `COC1=C(Br)[C@H](O)[C@](O)(CC#N)C=C1Br`, the IC50 – broadly, the point on the concentration scale where inhibition reaches its midpoint – is 5.4 µM in test [1]; 37 µM in [2]; 18.8 µM in test [3]; 8.2 µM in test [4]; 2.8 µM in test [5]; 1.1 µM in test [6]. Also, the IC50 came out at 5.6 µM in test [7], 0.7 µM in [8], 27.5 µM in test [9] and 6.2 µM in test [10].

For `NC(=O)CC1(O)C=C(Br)C(=O)C(Br)=C1` [VERONGIAQUINOL], the IC50 in [1] was determined as 15.7 µM; in test [2], 74.3 µM; in [3], 31.9 µM; in test [4], 46.1 µM; in test [5], 10.4 µM; in test [6], 3.9 µM. Besides, the IC50 came out at 15.6 µM in [7], 5.4 µM in [8], 58 µM in [9] and 26.1 µM in test [10].
